Assays:
[1] = molecular target: T1, 3-hydroxy-3-methylglutaryl-coenzyme A reductase (Homo sapiens) (UniProt P04035); assay: In vitro HMG-CoA reductase inhibitory activity required to inhibit cellular steroidgenesis in Hep G2 cells (human hepatoma cell line) with pravastatin as reference compound; format: cell-based; details: HepG2
T1 sequence (whole entry): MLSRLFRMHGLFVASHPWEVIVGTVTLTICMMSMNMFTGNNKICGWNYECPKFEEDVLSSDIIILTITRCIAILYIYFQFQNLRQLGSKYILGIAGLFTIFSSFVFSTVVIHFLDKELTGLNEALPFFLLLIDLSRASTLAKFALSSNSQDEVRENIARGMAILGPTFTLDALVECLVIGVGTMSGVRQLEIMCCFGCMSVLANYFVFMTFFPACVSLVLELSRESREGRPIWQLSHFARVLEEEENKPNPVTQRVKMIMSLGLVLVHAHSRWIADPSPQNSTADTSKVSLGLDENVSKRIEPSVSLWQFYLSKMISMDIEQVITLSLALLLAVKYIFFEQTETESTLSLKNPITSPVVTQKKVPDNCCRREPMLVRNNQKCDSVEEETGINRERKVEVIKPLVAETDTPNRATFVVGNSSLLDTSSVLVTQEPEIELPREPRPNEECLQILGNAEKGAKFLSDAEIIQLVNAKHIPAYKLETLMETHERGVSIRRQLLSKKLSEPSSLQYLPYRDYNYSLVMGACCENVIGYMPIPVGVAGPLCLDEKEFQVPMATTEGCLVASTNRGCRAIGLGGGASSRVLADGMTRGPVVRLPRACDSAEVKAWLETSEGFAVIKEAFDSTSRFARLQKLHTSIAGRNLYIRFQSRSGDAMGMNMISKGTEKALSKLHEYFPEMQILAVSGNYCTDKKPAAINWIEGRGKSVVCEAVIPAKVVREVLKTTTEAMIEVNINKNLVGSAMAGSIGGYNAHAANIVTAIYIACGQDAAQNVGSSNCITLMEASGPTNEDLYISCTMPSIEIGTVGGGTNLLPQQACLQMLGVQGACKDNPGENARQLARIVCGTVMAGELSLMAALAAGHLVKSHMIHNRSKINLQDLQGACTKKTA

[2] = molecular target: T2, 3-hydroxy-3-methylglutaryl-coenzyme A reductase (Rattus norvegicus) (UniProt P51639); assay: In vitro rat HMG-CoA reductase inhibitory activity required to inhibit sterol synthesis in cell free system with pravastatin as reference compound
T2 sequence (whole entry): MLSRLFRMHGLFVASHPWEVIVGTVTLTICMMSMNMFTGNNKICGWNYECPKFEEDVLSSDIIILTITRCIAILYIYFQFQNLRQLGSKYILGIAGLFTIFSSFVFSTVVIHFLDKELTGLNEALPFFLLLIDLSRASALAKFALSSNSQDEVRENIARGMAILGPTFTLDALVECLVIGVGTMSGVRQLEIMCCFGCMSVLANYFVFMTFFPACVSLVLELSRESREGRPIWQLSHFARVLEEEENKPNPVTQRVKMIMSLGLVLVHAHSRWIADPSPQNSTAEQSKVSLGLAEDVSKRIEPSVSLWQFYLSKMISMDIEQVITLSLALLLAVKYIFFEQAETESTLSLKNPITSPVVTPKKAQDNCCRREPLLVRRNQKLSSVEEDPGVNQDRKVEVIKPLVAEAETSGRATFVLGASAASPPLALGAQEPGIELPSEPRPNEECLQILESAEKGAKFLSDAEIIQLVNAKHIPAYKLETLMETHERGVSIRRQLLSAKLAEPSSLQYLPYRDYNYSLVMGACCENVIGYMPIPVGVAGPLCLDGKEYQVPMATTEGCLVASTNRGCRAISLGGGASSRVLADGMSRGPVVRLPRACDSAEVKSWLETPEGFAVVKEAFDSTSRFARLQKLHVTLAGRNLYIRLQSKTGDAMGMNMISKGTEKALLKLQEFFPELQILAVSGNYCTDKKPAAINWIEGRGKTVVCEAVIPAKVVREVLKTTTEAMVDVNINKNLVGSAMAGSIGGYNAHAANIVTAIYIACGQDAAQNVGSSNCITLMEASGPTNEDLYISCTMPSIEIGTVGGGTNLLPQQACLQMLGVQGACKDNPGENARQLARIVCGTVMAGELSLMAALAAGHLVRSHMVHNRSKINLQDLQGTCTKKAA

[3] = molecular target: T2, 3-hydroxy-3-methylglutaryl-coenzyme A reductase (Rattus norvegicus); assay: In vivo hepatic cholesterol synthesis inhibitory activity in male Sprague-Dawley rat after oral administration at a concentration of 2.0 mg/kg; format: functional, organism-based; set-up: dose 2 mg/kg

Compound | Relative potency [1] | Relative potency [2] | inhibition [3]
Cc1c2c(-c3ccc(F)cc3)c(/C=C/[C@@H](O)C[C@@H](O)CC(=O)O)c(C(C)C)nc2nn1-c1ccccc1 | 12 | 162 | –
CC(C)c1nc2cc(C(C)(C)C)nn2c(-c2ccc(F)cc2)c1/C=C/[C@@H](O)C[C@@H](O)CC(=O)O | < 1 | 4 | –
CC(C)c1nc2sc(-c3ccccc3)cc2c(-c2ccc(F)cc2)c1/C=C/[C@@H](O)C[C@@H](O)CC(=O)O | 1 | < 1 | –
O=C(O)C[C@H](O)C[C@H](O)/C=C/c1c(C2CC2)nc2sc3c(c2c1-c1ccc(F)cc1)CCC3 | 60 | 63 | –
Cc1nn2c(-c3ccc(F)cc3)c(/C=C/[C@@H](O)C[C@@H](O)CC(=O)O)c(C3CC3)nc2c1-c1ccccc1 | 3 | 64 | –
Cc1noc2nc(C(C)C)c(/C=C/[C@@H](O)C[C@@H](O)CC(=O)O)c(-c3ccc(F)cc3)c12 | 1 | 170 | –
Cc1sc2nc(C(C)C)c(/C=C/[C@@H](O)C[C@@H](O)CC(=O)O)c(-c3ccc(F)cc3)c2c1-c1ccccc1 | < 1 | 1 | –
Cc1cc2c(-c3ccc(F)cc3)c(/C=C/[C@@H](O)C[C@@H](O)CC(=O)O)c(C(C)C)nc2s1 | 22 | 68 | 34.2%
CC(C)(C)n1nc(C2CC2)c2c(-c3ccc(F)cc3)c(/C=C/[C@@H](O)C[C@@H](O)CC(=O)O)c(C3CC3)nc21 | 2 | 98 | –
CC(C)c1nc2c3c(nn2c(-c2ccc(F)cc2)c1/C=C/[C@@H](O)C[C@@H](O)CC(=O)O)CCCC3 | 1 | 30 | –
CC(C)c1cc2c(-c3ccc(F)cc3)c(/C=C/[C@@H](O)C[C@@H](O)CC(=O)O)c(C(C)C)nc2s1 | 62 | 52 | –
CC(C)(C)n1nc(-c2ccccc2)c2c(-c3ccc(F)cc3)c(/C=C/[C@@H](O)C[C@@H](O)CC(=O)O)c(C3CC3)nc21 | < 1 | 75 | –
CC(C)c1nc2sc3c(c2c(-c2ccc(F)cc2)c1/C=C/[C@@H](O)C[C@@H](O)CC(=O)O)CCCC3 | 19 | 48 | –
CC(C)c1nc2c(c(C3CC3)nn2-c2ccccc2)c(-c2ccc(F)cc2)c1/C=C/[C@@H](O)C[C@@H](O)CC(=O)O | 7 | 55 | –
Cc1nn(-c2ccccn2)c2nc(C3CC3)c(/C=C/[C@@H](O)C[C@@H](O)CC(=O)O)c(-c3ccc(F)cc3)c12 | 4 | 229 | –
CC(C)c1nc2c(cnn2-c2ccccc2)c(-c2ccc(F)cc2)c1/C=C/[C@@H](O)C[C@@H](O)CC(=O)O | 10 | 228 | –
CCc1c(C)sc2nc(C3CC3)c(/C=C/[C@@H](O)C[C@@H](O)CC(=O)O)c(-c3ccc(F)cc3)c12 | 38 | 65 | –
O=C(O)C[C@H](O)C[C@H](O)/C=C/c1c(C2CC2)nc2sc3c(c2c1-c1ccc(F)cc1)CCCCC3 | 2 | 23 | –
CC(C)c1nc2sc3c(c2c(-c2ccc(F)cc2)c1/C=C/[C@@H](O)C[C@@H](O)CC(=O)O)CCC3 | 49 | 58 | –
CC(C)c1nc2c(c(-c3ccc(Cl)cc3)nn2C)c(-c2ccc(F)cc2)c1/C=C/[C@@H](O)C[C@@H](O)CC(=O)O | 26 | 93 | –
CC(C)c1nc2cc(-c3ccco3)nn2c(-c2ccc(F)cc2)c1/C=C/[C@@H](O)C[C@@H](O)CC(=O)O | < 1 | 13 | –
Cc1nn2c(-c3ccc(F)cc3)c(/C=C/[C@@H](O)C[C@@H](O)CC(=O)O)c(C3CC3)nc2c1C | 3 | 25 | –
CCn1ncc2c(-c3ccc(F)cc3)c(/C=C/[C@@H](O)C[C@@H](O)CC(=O)O)c(C(C)C)nc21 | 39 | 71 | –

Source: ChEMBL document CHEMBL1134061, “Synthesis and biological evaluations of condensed pyridine and condensed pyrimidine-based HMG-CoA reductase inhibitors” (Bioorg Med Chem Lett, 2001)
